Measured values as given in PMC11396129, “Oxindole–benzothiazole hybrids as CDK2 inhibitors and anticancer agents: design, synthesis and biological evaluation” (BMC Chemistry, 2024).

Legend:
Type in all cases: cell-based, human
MOLT-4 = assay: NCI 60 panel growth inhibition (SRB), leukemia; conditions: for GI%: MOLT-4, 10 μM
Outline: (§1)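 Percent growth per concentration, normalised to Tz and control wells, yields three dose-response parameters including TGI (Ti = Tz). Where activity is not reached or is exceeded, the value is reported as greater or less than the tested extreme.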

SR = assay: NCI 60 panel growth inhibition (SRB), leukemia; conditions: for GI%: 10 μM
Outline: as §1

CCRF-CEM = assay: NCI 60 panel growth inhibition (SRB), leukemia; conditions: for GI%: 10 μM
Outline: as §1

RPMI-8226 = assay: NCI 60 panel growth inhibition (SRB), leukemia; conditions: for GI%: RPMI-8226, 10 μM
Outline: as §1

HL-60(TB) = assay: NCI 60 panel growth inhibition (SRB), leukemia; conditions: for GI%: HL-60(TB), 10 μM
Outline: as §1

K-562 = assay: NCI 60 panel growth inhibition (SRB), leukemia; conditions: for GI%: K-562, 10 μM
Outline: as §1

NCI/ADR-RES = assay: NCI 60 panel growth inhibition (SRB), ovarian cancer; conditions: for GI%: 10 μM
Outline: as §1

OVCAR-8 = assay: as above; conditions: for GI%: OVCAR-8, 10 μM
Outline: as §1

IGROV1 = assay: as above; conditions: for GI%: IGROV1, 10 μM
Outline: as §1

SK-OV-3 = assay: as above
Outline: as §1

OVCAR-3 = assay: as above; conditions: for GI%: OVCAR-3, 10 μM
Outline: as §1

OVCAR-4 = assay: as above; conditions: for GI%: OVCAR-4, 10 μM
Outline: as §1

OVCAR-5 = assay: as above; conditions: for GI%: OVCAR-5, 10 μM
Outline: as §1

HS 578T = assay: NCI 60 panel growth inhibition (SRB), breast cancer; conditions: for GI%: 10 μM
Outline: as §1

MDA-MB-231/ATCC = assay: as above; conditions: for GI%: 10 μM
Outline: as §1

T-47D = assay: as above
Outline: as §1

BT-549 = assay: as above; conditions: for GI%: BT-549, 10 μM
Outline: as §1

MDA-MB-468 = assay: as above; conditions: for GI%: MDA-MB-468, 10 μM
Outline: as §1

MCF7 = assay: as above; conditions: for GI%: MCF7, 10 μM
Outline: as §1

CAKI-1 = assay: NCI 60 panel growth inhibition (SRB), renal cancer; conditions: for GI%: CAKI-1, 10 μM
Outline: as §1

RXF 393 = assay: NCI 60 panel growth inhibition (SRB), renal cancer; conditions: for GI%: RXF 393, 10 μM
Outline: as §1

ACHN = assay: NCI 60 panel growth inhibition (SRB), renal cancer; conditions: for GI%: 10 μM
Outline: as §1

786-0 = assay: NCI 60 panel growth inhibition (SRB), renal cancer; conditions: for GI%: 786-0, 10 μM
Outline: as §1

UO-31 = assay: NCI 60 panel growth inhibition (SRB), renal cancer; conditions: for GI%: UO-31, 10 μM
Outline: as §1

A498 = assay: NCI 60 panel growth inhibition (SRB), renal cancer; conditions: for GI%: A498, 10 μM
Outline: as §1

TK-10 = assay: NCI 60 panel growth inhibition (SRB), renal cancer; conditions: for GI%: TK-10, 10 μM
Outline: as §1

SN12C = assay: NCI 60 panel growth inhibition (SRB), renal cancer; conditions: for GI%: 10 μM
Outline: as §1

PC-3 = assay: NCI 60 panel growth inhibition (SRB), prostate cancer; conditions: for GI%: PC-3, 10 μM
Outline: as §1

DU-145 = assay: as above; conditions: for GI%: DU-145, 10 μM
Outline: as §1

M14 = assay: NCI 60 panel growth inhibition (SRB), melanoma; conditions: for GI%: M14, 10 μM
Outline: as §1

LOX IMVI = assay: NCI 60 panel growth inhibition (SRB), melanoma; conditions: for GI%: 10 μM
Outline: as §1

SK-MEL-5 = assay: NCI 60 panel growth inhibition (SRB), melanoma; conditions: for GI%: SK-MEL-5, 10 μM
Outline: as §1

UACC-257 = assay: NCI 60 panel growth inhibition (SRB), melanoma; conditions: for GI%: UACC-257, 10 μM
Outline: as §1

UACC-62 = assay: NCI 60 panel growth inhibition (SRB), melanoma; conditions: for GI%: UACC-62, 10 μM
Outline: as §1

SK-MEL-28 = assay: NCI 60 panel growth inhibition (SRB), melanoma; conditions: for GI%: SK-MEL-28, 10 μM
Outline: as §1

## COc1ccc2c(c1)C(=NNC(=O)COc1cc(-c3nc4ccccc4s3)ccc1OC)C(=O)N2 [Compound 9o, 2-(5-(Benzo[d]thiazol-2-yl)-2-methoxyphenoxy)-N′-(5-methoxy-2-oxoindolin-3-ylidene)acetohydrazide]
MOLT-4; Homo sapiens, MOLT-4, five dose
  GI50: 5.05 µM
MOLT-4
  GI%: 36.32%
SR
  GI%: 35.47%
SR; Homo sapiens, five dose
  GI50: 20.9 µM
CCRF-CEM
  GI%: 57.64%
CCRF-CEM; Homo sapiens, five dose
  GI50: 6.08 µM
RPMI-8226; Homo sapiens, RPMI-8226, five dose
  GI50: 61.4 µM
RPMI-8226
  GI%: 66.93%
HL-60(TB)
  GI%: 7.99%
HL-60(TB); Homo sapiens, HL-60 (TB), five dose
  GI50: > 100 µM
K-562; Homo sapiens, K562, K-562, five dose
  GI50: 3.75 µM
K-562
  GI%: 64.36%
NCI/ADR-RES
  GI%: 130.36%
NCI/ADR-RES; Homo sapiens, five dose
  GI50: 18.5 µM
OVCAR-8; Homo sapiens, OVCAR-8, five dose
  GI50: 4.02 µM
OVCAR-8
  GI%: 93.38%
IGROV1; Homo sapiens, IGROV-1, IGROV1, five dose
  GI50: 2.22 µM
IGROV1
  GI%: 18.68%
SK-OV-3; Homo sapiens, SK-OV-3, five dose
  GI50: 48.9 µM
OVCAR-3; Homo sapiens, OVCAR-3, five dose
  GI50: 2.49 µM
OVCAR-3
  GI%: 94.12%
OVCAR-4; Homo sapiens, OVCAR-4, five dose
  GI50: > 100 µM
OVCAR-4
  GI%: 68.35%
OVCAR-5; Homo sapiens, OVCAR-5, five dose
  GI50: > 100 µM
OVCAR-5
  GI%: 9.28%
HS 578T
  GI%: 34.64%
HS 578T; Homo sapiens, five dose
  GI50: 24.8 µM
MDA-MB-231/ATCC
  GI%: 75.41%
MDA-MB-231/ATCC; Homo sapiens, five dose
  GI50: 5.44 µM
T-47D; Homo sapiens, T47D, five dose
  GI50: 41 µM
BT-549
  GI%: 33.89%
BT-549; Homo sapiens, BT-549, five dose
  GI50: 17.6 µM
MDA-MB-468; Homo sapiens, MDA-MB-468, five dose
  GI50: 3.72 µM
MDA-MB-468
  GI%: 60.54%
MCF7; Homo sapiens, MCF7, five dose
  GI50: 3.44 µM
MCF7
  GI%: 82.77%
CAKI-1
  GI%: 72.22%
CAKI-1; Homo sapiens, CAKI-1, five dose
  GI50: 56.2 µM
RXF 393; Homo sapiens, RXF 393, five dose
  GI50: 5.06 µM
RXF 393
  GI%: 129.01%
ACHN
  GI%: 96.99%
ACHN; Homo sapiens, five dose
  GI50: 6.7 µM
786-0
  GI%: 75.63%
786-0; Homo sapiens, 786-0, five dose
  GI50: 16.1 µM
UO-31; Homo sapiens, UO-31, five dose
  GI50: 2.03 µM
UO-31
  GI%: 44.24%
A498
  GI%: – (GI% < 5%)
A498; Homo sapiens, A498, five dose
  GI50: > 100 µM
TK-10; Homo sapiens, TK-10, five dose
  GI50: 71.7 µM
TK-10
  GI%: 86.88%
SN12C
  GI%: 24.01%
SN12C; Homo sapiens, five dose
  GI50: 25.6 µM
PC-3; Homo sapiens, PC-3, five dose
  GI50: 3.78 µM
PC-3
  GI%: 49.56%
DU-145
  GI%: 130.12%
DU-145; Homo sapiens, DU-145, five dose
  GI50: 2.92 µM
M14; Homo sapiens, M14, five dose
  GI50: 47.4 µM
M14
  GI%: 39.13%
LOX IMVI
  GI%: 160.95%
LOX IMVI; Homo sapiens, five dose
  GI50: 4.09 µM
SK-MEL-5; Homo sapiens, SK-MEL-5, five dose
  GI50: 41.5 µM
SK-MEL-5
  GI%: 24.21%
UACC-257; Homo sapiens, UACC-257, five dose
  GI50: > 100 µM
UACC-257
  GI%: – (GI% < 5%)
UACC-62; Homo sapiens, UACC-62, five dose
  GI50: 59.3 µM
UACC-62
  GI%: – (GI% < 5%)
SK-MEL-28; Homo sapiens, SK-MEL-28, five dose
  GI50: > 100 µM
SK-MEL-28
  GI%: 37.85%

## COc1ccc2c(c1)C(=NNC(=O)COc1ccccc1-c1nc3ccccc3s1)C(=O)N2 [Compound 9c, 2-(2-(Benzo[d]thiazol-2-yl)phenoxy)-N′-(5-methoxy-2-oxoindolin-3-ylidene)acetohydrazide]
MOLT-4
  GI%: 47.19%
SR
  GI%: 20.98%
CCRF-CEM
  GI%: 60.17%
RPMI-8226
  GI%: 48.87%
HL-60(TB)
  GI%: 15.59%
K-562
  GI%: 30.54%
NCI/ADR-RES
  GI%: 25.58%
OVCAR-8
  GI%: 19.15%
IGROV1
  GI%: – (GI% < 5%)
SK-OV-3; SK-OV-3, 10 μM
  GI%: – (GI% < 5%)
OVCAR-3
  GI%: – (GI% < 5%)
OVCAR-4
  GI%: 32.22%
OVCAR-5
  GI%: – (GI% < 5%)
HS 578T
  GI%: – (GI% < 5%)
MDA-MB-231/ATCC
  GI%: – (GI% < 5%)
T-47D; 10 μM
  GI%: 36.38%
BT-549
  GI%: 18.71%
MDA-MB-468
  GI%: 29.51%
MCF7
  GI%: 18.66%
CAKI-1
  GI%: 28.09%
RXF 393
  GI%: 23.06%
ACHN
  GI%: 9.04%
786-0
  GI%: 5.40%
UO-31
  GI%: 35.66%
A498
  GI%: – (GI% < 5%)
TK-10
  GI%: – (GI% < 5%)
SN12C
  GI%: 12.43%
PC-3
  GI%: 43.83%
DU-145
  GI%: 6.75%
M14
  GI%: 5.86%
LOX IMVI
  GI%: 9.06%
SK-MEL-5
  GI%: 44.97%
UACC-257
  GI%: – (GI% < 5%)
UACC-62
  GI%: 28.02%
SK-MEL-28
  GI%: – (GI% < 5%)
